Patent publication US9220746B2, “Compounds and methods for treating bone disorders and controlling weight” (The University of North Carolina at Chapel Hill, priority 2009, dated 2015)
Entries after “also recorded” stand apart in the source; their conditions may differ.

Assays:
[1] = tested on: IGFBP-2 knockout mice; assay: Body weight and fat mass of IGFBP-2 knockout mice given the heparin binding peptide; format: in vivo, mouse; conditions: IGFBP-2 −/− mice, 50 mcg intraperitoneally three days per week, 6 week treatment; for Fat Mass: by MRI
Experimental: Further experiments have been carried out in which the knockout mice and control animals have been administered the mouse homologue of the heparin binding peptide. The peptide was administered to 8 animals in each group. The knockout animals weighed 30.4±1.5 gm whereas the control animals weighed 25.2±1.1 gm. The knockout animals that received the active peptide weighed 24.9±1.3 gm. […] More importantly when absolute fat mass was analyzed by MRI, highly significant differences were also present. The knockout mice had 6.21±0.76 grams of fat. The control mice had 3.82±0.67 grams and the knockout mice administered the heparin binding peptide had 3.67±0.36 grams. Again these are highly significant differences.

[2] = tested on: Igfbp2−/− mice; assay: MicroCT of femurs and vertebrae (L5) after in vivo treatment of Igfbp2−/− mice; parameters: species or system mouse; conditions: in vivo administration, summary statement
Experimental: Igfbp2^+/+ and Igfbp2^−/− mice were administered with PBS or PEG-HBD-peptide (50 μg/day) intraperitoneally 5 times per week from 6 to 9 weeks of age. Dual-energy x-ray absorptiometry was performed before the initiation of treatment. Mice were injected with 20 mg/kg calcein intraperitoneally 7 days and 2 days before sample collection.
Microarchitecture of distal trabecular bone and midshaft cortical bone was analyzed with femurs and vertebrae (L5) by MicroCT (MicroCT40)^10. Approximately 100 slices were measured just proximal to the distal growth plate, with an isotropic pixel size of 12 μm and slice thickness of 12 μm. Midshaft cortical bone thickness was analysis in a similar fashion using approximately 18 slices obtained at the exact midpoint of the femur.

[3] = tested on: Igfbp2−/− COBs and BMSCs; assay: In vitro osteoblastogenesis of calvarial osteoblasts and bone marrow stromal cells (ALP, Alizarin Red staining); format: cell-based, mouse
Experimental: FIG. 1. The heparin-binding domain of IGFBP2 enhances osteoblastogenesis in vitro. a. Von Kossa staining was performed using tibia from 8 weeks old Igfbp2^+/+ and Igfbp2^−/− male mouse. b. Calvarial osteoblasts (COBs) were harvested from day 7 old male Igfbp2^+/+ and Igfbp2^−/− male mouse, and treated with osteogenic media in the presence of 2.5% FCS. At day 7, alkaline phosphatase (ALP) staining was performed. c and d. COBs and Bone marrow stromal cells (BMSCs) from Igfbp2^−/− mouse were treated with osteogenic media with pegylated heparin-binding domain peptide (PEG-HBD) in the presence of 10% FCS. ALP staining (day 7) and Alizarin Red staining (day 14) were performed (c). RNA was isolated at day 14 from BMSCs and expression of ALP, osteocalcin (OC) and Runx2 was analyzed by real-time PCR. Figures shown represent at least 3 independent experiments (n=3). Statistical difference was analyzed by student's t test. *; p<0.05.
FIG. 7. […] Igfbp2^−/− calvarial osteoblasts (COBs) were cultured with osteogenic media with PBS, control peptide (2 μg/ml) or heparin binding domain peptide (HBD-peptide) (2 μg/ml). Osteoblastogenesis was evaluated by Alizarin Red staining.
Neonatal calvarial osteoblasts were collected from 7-10 day old mice as previously described^53. Briefly, calvariae were digested 5 times with collagenase P and Trypsin. Cells released from digests 2 through 5 were collected as primary calvarial osteoblasts, and maintained in DMEM supplemented with 10% FCS and non-essential amino acids. Osteoblastogenesis of primary calvarial osteoblasts was carried out by treating cells with 4 mM β-glycerophosphate and 50 μg/ml ascorbic acid in αMEM. Bone marrow stromal cells (BMSCs) were harvested from femurs and tibias of 8 weeks old mice as described previously^10. Osteoblastogenesis of BMSCs was induced by the treatment with osteogenic media consisting of αMEM containing 10% FCS, 8 mM β-glycerophosphate, and 50 μg/ml ascorbic acid.

[4] = tested on: IGFBP-2 knockout mice; assay: Glucose tolerance test in IGFBP-2 knockout mice; format: in vivo, mouse; conditions: knockout animals with impaired glucose tolerance; not significantly different from control mice
[5] = tested on: BP2−/− mice; assay: Flow cytometry of white blood cell populations in peripheral blood; format: in vivo, mouse; conditions: BP2−/− male mice, intraperitoneal injection, vs PBS injected controls
[6] = tested on: metacarpals; assay: Metacarpal culture ex vivo (calcein incorporated area, length, width); format: cell-based, mouse
Experimental: FIG. 2. The heparin binding domain of IGFBP2 enhances periosteal expansion of metacarpals ex vivo. Metacarpals were collected from day 1 male mouse, and treated with osteogenic media with IGFBP2 (200 ng/ml) or the heparin-binding domain peptide (HBD-peptide) (2 μg/ml) in the presence or absence of IGF-1 (20 ng/ml) for 10 days. Bones were labeled with calcein (500 ng/ml) and calcein incorporated area was visualized (a) and longitudinal length of calcein incorporated area was quantified (b). Alcian blue and Von Kossa double staining was performed (c) and length and width of metacarpals were quantified (d). Statistical difference was analyzed by ANOVA followed by Bonferroni post-hoc test. Figures shown represent at least 3 independent experiments. Values are expressed as the mean±SEM (n=3-4). ^a; <0.05 vs PBS, ^b; <0.01 vs PBS, ^c; <0.001 vs PBS, ^d; <0.01 vs HBD, ^e; <0.05 vs IGF-I, ^f; <0.05 vs HBD.
Metacarpals were isolated from Igfbp2^−/− mice at 1-day old and incubated in DMEM containing 0.5% BSA, 50 μg/ml ascorbic acid and 1 mM β-glycerol phosphate for 10 days^54. Stimulants were added to culture media from day 1. At day 10, metacarpals were incubated in media containing calcein (500 ng/ml) for 2 hours for staining of calcium deposition, and images were obtained. Then, bones were fixed with 4% PFA, embedded in paraffin, and processed for Alcian blue and von Kossa double staining.

[7] = listed as heparin binding peptide

Sequence: KHLSLEEPKKLRP (IGFBP-2 heparin binding domain-containing peptide sequence) [HBD-peptide]
- Fat Mass ([1]; listed as HBD): 3.67 ± 0.36 gms
- Fat Mass [1, 7]: 3.67±0.36 gms
- Body Weight ([1]; listed as HBD): 24.9 ± 1.3 gms
- Body Weight [1, 7]: 24.9±1.3 gms
- bone mass phenotype of Igfbp2−/− mice (trabecular bone mass, osteoblast number) [2]: rescued the low bone mass phenotype
- bone mass phenotype of Igfbp2−/− mice (trabecular bone mass, osteoblast number) ([2]; listed as HBD): trabecular bone mass was rescued and osteoblast number increased
- mineralization of Igfbp2−/− COBs (Alizarin Red) compared to PBS ([3]; 2 μg/ml, osteogenic media): fully active
- cell proliferation of osteoblasts and bone marrow stromal cells (alkaline phosphatase, alizarin red staining) ([3]; compared to full length (FL) IGFBP-2 and control peptide): increased cell proliferation
- bone mineralization phenotype of Igfbp2−/− bone marrow stromal cells and calvarial osteoblasts ([3]; in vitro, summary statement): rescued the low bone mineralization phenotype
- glucose tolerance [4]: significantly improved
- percentages of differentiated lymphoid and myeloid cells (monocytes, macrophages, neutrophils) in peripheral blood ([5]; listed as HBD): suppressed the percentages of mature monocytes, macrophages and neutrophils; also recorded: reduced the number of differentiated lymphoid and myeloid cells
- percentages of differentiated lymphoid and myeloid cells (monocytes, macrophages, neutrophils) in peripheral blood ([5]; listed as IGFBP-2 heparin binding domain (HBD) peptide): reduced the percentage of macrophages
- calcein incorporated area of metacarpals ([6]; 10 days, IGFBP2 200 ng/ml, peptides 2 μg/ml, IGF-1 20 ng/ml, vs PBS): significantly enhanced
- width (and length) of metacarpals ([6]; 10 days, IGFBP2 200 ng/ml, peptides 2 μg/ml, vs PBS): increased the width of metacarpals
- periosteal expansion and growth of Igfbp2−/− metacarpal explants ([6]; ex vivo, summary statement): stimulated periosteal expansion and growth
